Assay [1] relates to corn. As to conditions: Robertson and Greenway 1973; cited from earlier work.
For another assay, the system named is hybrid corn. Description: Field trial 2012, time course of GA3 applications, hybrid corn (Example 3). To be noted: 5.3 grams GA3/acre, extreme and exceptional drought, untreated 116. It is filed as in vivo. As to the method: In another field trial conducted in 2012 a time course of GA3 applications was performed. In this trial, hybrid corn was planted on April 24, 2012 at a density of 32,000 plants/acre. The plants were sprayed with GA3 at either the fifth leaf (V5) or tassel emergence (VT) on June 6 or July 7, respectively. This trial was subjected to extreme and exceptional drought in July during set and grain fill. As is shown in Table 3 below, the effect of the spray treatments of GA3 was dependent on the timing of the GA3 application.

Assay [2] has as its system corn. Description: Replicated corn trial 2012, extreme and exceptional drought (Example 2). It is filed as in vivo. To be noted: for Grain Yield: extreme and exceptional drought, untreated 88.45. The text has this: In a replicated trial conducted in 2012, the corn crop experienced extreme and exceptional drought in July, as described by the National Climate Data Center. Corn was planted at the end of April and treated with GA3 at either the V2 or V5 growth stages. Thirty two days after application, the GA3-treated corn was approximately 10 inches taller than the untreated on average.

Assay [3] concerns corn. As to the kind of experiment: Replicated corn trial 2012, moderate drought (Example 1). The class given is in vivo. As to the method:
A replicated corn silage study was conducted in 2012. Corn was planted on May 18, 2012, and treated with two rates of GA3 at either the V2 (June 2) or V5 (June 18) growth stage, each time at two rates of GA3. Grain yields were estimated from harvests of 20 feet of row and converted to bushels of grain per acre. There was 1.5 inches of rain in the two weeks before planting but no rain from May 10 until May 29, when there was 0.7 inch rain. During June there was 2.9 inches of rain spread over the month. There were only two rain events from July 1-25, each of less than 0.2 inches. On July 26th there was approximately 2 inches of rain. Rainfall in June, July and August was about one third below the 30-year average for the area and the corn was under moderate drought conditions. Crop moisture conditions in July were described as ‘excessively dry’ by the National Climate Data Center of NOAA.

In another assay the test system is perennial ryegrass. To be noted: Jiang and Fry 1998; cited from earlier work.

On to `C[N+](C)(C)CCCl` [chlormequat chloride], for which the Drought resistance entry in the assay with corn [1] is on record as “induce drought resistance in corn”.
With `C=C1C[C@]23C[C@@]1(O)CC[C@H]2[C@@]12C=C[C@H](O)[C@@](C)(C(=O)O1)[C@H]2[C@@H]3C(=O)O` [GA3, gibberellic acid], the “Grain Yield” value with hybrid corn (application stage V5) was determined as 155 Bu/Acre; in the assay on hybrid corn (application stage VT (tassel emergence)), 131 Bu/Acre; with corn [2] (3.2 grams GA3/acre, application stage V2), 119.70 Bu/Acre; in the assay on corn [2] (3.2 grams GA3/acre, application stage V5), 155.65 Bu/Acre; with corn [2] (6.4 grams GA3/acre, application stage V2), 119.83 Bu/Acre; in the assay with corn [2] (6.4 grams GA3/acre, application stage V5), 121.60 Bu/Acre. Also, the “Grain Yield” value is 141.2 Bu/Acre in the assay on corn [3] (3.2 grams GA3/acre, application timing V2, untreated 124.0); 143.0 Bu/Acre in the assay on corn [3] (3.2 grams GA3/acre, application timing V5, untreated 124.0); 141.1 Bu/Acre with corn [3] (6.4 grams GA3/acre, application timing V2, untreated 124.0); 156.1 Bu/Acre in the assay on corn [3] (6.4 grams GA3/acre, application timing V5, untreated 124.0). Besides, the “Plant height, taller than the untreated on average” value in the assay on corn [2] (thirty two days after application at V2 or V5) is recorded as “approximately 10 inches”.
Regarding `CCOC(=O)C1CC(=O)C(=C(O)C2CC2)C(=O)C1` (stereo not shown) [Trinexapac-ethyl, trinexapac-ethyl], in the assay on perennial ryegrass, the Drought tolerance entry is recorded as “induce drought tolerance in perennial ryegrass”.

The values above are taken from patent publication US20140213454A1, “METHODS TO INDUCE DROUGHT TOLERANCE IN CROPS” (Valent BioSciences Corporation, priority 2013, published 2014).
